# Test results from patent US11179367B2, “Pharmaceutical compositions for treating cystic fibrosis” (Vertex Pharmaceuticals Incorporated, priority 2018, dated 2021).
# Legend:
# [1] = target: T1, F508del-CFTR in human bronchial epithelial (HBE) cells (Homo sapiens, UniProt P13569, DEL508-508); experiment: Ussing chamber assay, chloride current in airway epithelial (HBE) cells expressing F508del; assay type: cell-based
# T1 construct: endogenous in cells; host or cells: primary CF human bronchial epithelial (HBE) cells
# T1 sequence (P13569 with tags, fused parts or gaps DEL508-508): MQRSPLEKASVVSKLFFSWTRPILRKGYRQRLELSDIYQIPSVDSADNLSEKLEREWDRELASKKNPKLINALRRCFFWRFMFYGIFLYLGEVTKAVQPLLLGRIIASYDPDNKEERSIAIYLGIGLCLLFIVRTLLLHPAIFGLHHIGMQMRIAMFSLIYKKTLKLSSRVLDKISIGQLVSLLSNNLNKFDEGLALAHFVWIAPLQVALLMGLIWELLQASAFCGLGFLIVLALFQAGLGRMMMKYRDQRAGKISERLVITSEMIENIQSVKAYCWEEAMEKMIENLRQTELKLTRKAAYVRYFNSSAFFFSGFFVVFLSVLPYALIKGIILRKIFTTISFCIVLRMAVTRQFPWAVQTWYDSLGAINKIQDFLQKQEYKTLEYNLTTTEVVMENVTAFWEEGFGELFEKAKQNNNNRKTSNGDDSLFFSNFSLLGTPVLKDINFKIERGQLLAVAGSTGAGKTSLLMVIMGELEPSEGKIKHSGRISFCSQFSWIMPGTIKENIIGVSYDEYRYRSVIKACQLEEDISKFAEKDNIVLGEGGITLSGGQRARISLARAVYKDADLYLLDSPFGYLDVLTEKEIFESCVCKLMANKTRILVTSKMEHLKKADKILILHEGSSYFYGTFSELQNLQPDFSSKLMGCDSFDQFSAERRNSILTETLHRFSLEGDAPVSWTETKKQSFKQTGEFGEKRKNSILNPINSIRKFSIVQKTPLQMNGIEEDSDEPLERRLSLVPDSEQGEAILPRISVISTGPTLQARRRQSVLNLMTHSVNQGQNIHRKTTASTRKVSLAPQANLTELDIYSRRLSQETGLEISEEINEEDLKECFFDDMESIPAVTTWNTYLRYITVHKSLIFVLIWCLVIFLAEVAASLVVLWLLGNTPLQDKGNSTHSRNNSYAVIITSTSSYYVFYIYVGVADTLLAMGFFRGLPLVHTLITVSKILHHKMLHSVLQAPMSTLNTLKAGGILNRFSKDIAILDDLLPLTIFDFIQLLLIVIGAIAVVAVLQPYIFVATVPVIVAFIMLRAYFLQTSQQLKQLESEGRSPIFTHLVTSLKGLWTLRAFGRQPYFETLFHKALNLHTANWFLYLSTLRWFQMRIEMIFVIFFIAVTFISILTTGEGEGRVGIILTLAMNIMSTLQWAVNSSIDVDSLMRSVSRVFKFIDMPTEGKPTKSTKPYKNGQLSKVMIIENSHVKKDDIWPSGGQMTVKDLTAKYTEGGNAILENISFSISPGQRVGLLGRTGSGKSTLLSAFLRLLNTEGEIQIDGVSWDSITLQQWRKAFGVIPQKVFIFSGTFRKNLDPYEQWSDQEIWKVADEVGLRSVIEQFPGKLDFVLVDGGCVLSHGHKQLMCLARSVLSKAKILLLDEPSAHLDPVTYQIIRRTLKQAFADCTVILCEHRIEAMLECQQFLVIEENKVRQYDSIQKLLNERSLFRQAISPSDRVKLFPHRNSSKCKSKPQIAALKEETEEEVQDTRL
# Experimental: Ussing chamber experiments were performed on polarized airway epithelial cells expressing F508del to further characterize the F508del modulators identified in the optical assay above. Non-CF and CF airway epithelia were isolated from bronchial tissue, cultured using methods well known in the art, and plated onto Costar® Snapwell™ filters that were precoated with NIH3T3-conditioned media. After four days the apical media was removed and the cells were grown at an air liquid interface for >14 days prior to use. […] CF-HBE cells were isolated from patients homozygous for F508del (F508del/F508del-HBE) or heterozygous for F508del with a different disease causing mutation on the other allele.
# HBE cells grown on Costar® Snapwell™ cell culture inserts were mounted in an Ussing chamber (Physiologic Instruments, Inc., San Diego, Calif.), and the transepithelial resistance and short-circuit current in the presence of a basolateral to apical Cl^− gradient (ISC) were measured using a voltage-clamp system (Department of Bioengineering, University of Iowa, IA). Briefly, HBE cells were examined under voltage-clamp recording conditions (Vhold=0 mV) at 37° C. […]
# A basolateral to apical membrane Cl^− concentration gradient was set up as follows. […] Chloride current was measured to assess the increase in functional CFTR in the cell membrane.
# [2] = Rat pharmacokinetics, single IV and oral dose; assay type: in vivo; conditions: male Sprague Dawley rats
# Experimental: Compound 1 was also administered to male Sprague Dawley rats at single nominal oral dose (PO) of 3 mg/kg as a solution in 5% NMP, 30% PEG400, 10% TPGS, 5% PVP-K30 at 5 mL/kg dose volume.
# The study design, sample tracking, data run design and individual plasma sample concentrations were stored using Watson LIMS software, Version 7.4.2 (Thermo Scientific Inc, Waltham, Mass.). Plasma concentration-time profiles of Compound 1 in Sprague Dawley rats at scheduled (nominal) sampling times were analyzed by noncompartmental pharmacokinetic methods using PK function within Watson LIMS software, Version 7.4.2 (Thermo Scientific Inc, Waltham, Mass.). Key pharmacokinetic parameters such as “area under the curve” (AUC), from the time of drug administration, time zero, extrapolated to infinity, clearance (CL), and Percent of oral bioavailability (% F) were determined. The AUC values were calculated using the linear trapezoidal rule.
# In Table 21 below, Compound I is shown to have advantageous rat oral exposure (AUC) and oral bioavailability.
# [3] = target: F508del-CFTR protein (Homo sapiens, UniProt P13569, DEL508-508); experiment: CFTR processing and trafficking to the cell surface (Example 15); assay type: cell-based
# F508del-CFTR protein, sequence (P13569 with tags, fused parts or gaps DEL508-508): as above
# [4] = target: T2, F508del CFTR in NIH3T3 cells (Homo sapiens, UniProt P13569, DEL508-508); experiment: Membrane potential optical assay (correction assay) for F508del-CFTR modulators; assay type: cell-based; conditions: NIH3T3 cells expressing F508del
# T2 construct: expressed in transfected cells
# T2 sequence (P13569 with tags, fused parts or gaps DEL508-508): as above
# From the text: Membrane Potential Optical Methods for Assaying Properties of F508del-CFTR Modulators
# An optical assay was employed to measure changes in membrane potential to determine the CFTR modulator properties of compounds. The assay utilized fluorescent voltage sensing dyes to measure changes in membrane potential using a fluorescent plate reader (e.g., FLIPR III, Molecular Devices, Inc.) as a readout for increase in functional F508del in NIH 3T3 cells. The driving force for the response was the creation of a chloride ion gradient in conjunction with channel activation and concurrent with compound treatment by a single liquid addition step after the cells had previously been loaded with a voltage sensing dye.
# NIH3T3 mouse fibroblasts stably expressing F508del were used for optical measurements of membrane potential. The cells were maintained at 37° C. in 5% CO2 and 90% humidity in Dulbecco's modified Eagle's medium supplemented with 2 mM glutamine, 10% fetal bovine serum, 1×NEAA, β-ME, 1×pen/strep, and 25 mM HEPES in 175 cm^2 culture flasks. […] The cells were then activated and treated with Compound I. After 18-24 hours, fluorescence from the voltage sensing dye in the cells was measured to assess changes in the membrane potential as a read out for increase in functional F508del CFTR in the NIH3T3 cells.
# [5] = target: CFTR (Homo sapiens, UniProt P13569); conditions: disclosed in PCT Application No. PCT/US2017/065425; read-out: EC50 as CFTR modulator; cited from earlier work
# [6] = Solid form assessment of Compound I (thermodynamic stability); assay type: physicochemical; conditions: among solid forms of Compound I
# From the text: In some embodiments, Compound I is Form A. In some embodiments, crystalline Form A is characterized by an X-ray powder diffractogram having a signal at least one two-theta value chosen from 6.6±0.2, 7.6±0.2, 9.6±0.2, 12.4±0.2, 13.1±0.2, 15.2±0.2, 16.4±0.2, 18.2±0.2, and 18.6±0.2. In some embodiments, crystalline Form A is characterized by an X-ray powder diffractogram having a signal at at least three two-theta values chosen from 6.6±0.2, 7.6±0.2, 9.6±0.2, 12.4±0.2, 13.1±0.2, 15.2±0.2, 16.4±0.2, 18.2±0.2, and 18.6±0.2. In some embodiments, crystalline Form A is characterized by an X-ray powder diffractograph having a signal at at least three two-theta values chosen from 6.6±0.2, 9.6±0.2, 13.1±0.2, 15.2±0.2, 18.2±0.2, and 18.6±0.2. In some embodiments, crystalline Form A is characterized by an X-ray powder diffractograph having a signal at three two-theta values of 6.6±0.2, 13.1±0.2, 18.2±0.2. In some embodiments, crystalline Form A is characterized by an X-ray powder diffractograph having a signal at six two-theta values of 6.6±0.2, 9.6±0.2, 13.1±0.2, 15.2±0.2, 18.2±0.2, and 18.6±0.2. In some embodiments, Crystalline Form A is characterized by an X-ray powder diffractogram substantially similar to that in FIG. 4A. In some embodiments, Crystalline Form A is characterized by an X-ray powder diffractogram substantially similar to that in FIG. 4B.
# [7] = Bioavailability of crystalline Form A of Compound I; assay type: in vivo
EC50 [1] [nM],HBE Max Eff (%) ([1]; % Efficacy),rat oral exposure (AUC) ([2]; PO 3 mg/kg),oral bioavailability ([2]; PO 3 mg/kg vs IV 3.0 mg/kg),"Rat PO AUC/dose ([2]; single nominal oral dose 3 mg/kg, dose-normalised) [µg·h/mL/mg/kg]","bioavailability ([2]; rat, plasma, oral bioavailability, PO 3 mg/kg vs IV 3.0 mg/kg, read-out: Rat % F) [%]","clearance ([2]; rat, plasma, single nominal IV dose 3.0 mg/kg, read-out: Rat iv CL) [mL/min/kg]","AUC ([2]; rat, plasma, single nominal oral dose 3 mg/kg, AUC extrapolated to infinity) [ng·h/mL]","CFTR corrector activity (processing and trafficking of F508del-CFTR, enhanced chloride transport) [3]",EC50 ([4]; 18-24 hours treatment) [nM],"Emax ([4]; relative to Compound II, read-out: % Efficacy relative to Compound II) [%]",thermodynamic stability of solid form [6],bioavailability [7],Compound,EC50 [5] [nM]
< 2000,+++ (“+++” means >100%),advantageous,advantageous,9.4 ± 0.7,84,1.6 ± 0.4,23500 ± 1700,"potent, efficacious, and selective",< 3000,≥ 100,–,–,"Cc1nn(C)cc1S(=O)(=O)NC(=O)c1ccc(-n2ccc(OCC(C)(C)C(F)(F)F)n2)nc1N1C[C@@H](C)CC1(C)C [Compound I, N-(1,3-dimethylpyrazol-4-yl)sulfonyl-6-[3-(3,3,3-trifluoro-2,2-dimethyl-propoxy)pyrazol-1-yl]-2-[(4 S)-2,2,4-trimethylpyrrolidin-1-yl]pyridine-3-carboxamide]",70
–,–,–,–,–,–,–,–,–,–,–,most thermodynamically stable form,good,"Cc1nn(C)cc1S(=O)(=O)NC(=O)c1ccc(-n2ccc(OCC(C)(C)C(F)(F)F)n2)nc1N1C[C@@H](C)CC1(C)C [Crystalline Form A, N-(1,3-dimethylpyrazol-4-yl)sulfonyl-6-[3-(3,3,3-trifluoro-2,2-dimethyl-propoxy)pyrazol-1-yl]-2-[(4 S)-2,2,4-trimethylpyrrolidin-1-yl]pyridine-3-carboxamide]",–
